{"source": "paper PMC10845205", "about": "“Discovery of novel antibacterial agent for the infected wound treatment: all-hydrocarbon stapling optimization of LL-37” (Theranostics, 2024)", "key": {"[1]": {"test_system": "E. faecalis", "conditions": "24 h", "protocol": "(§1) According to the protocol of Clinical & Laboratory Standards Institute, the minimum inhibitory concentration (MIC) of the linear and stapled peptides against a panel of gram-positive and gram-negative bacteria was determined by the broth microdilution method. […]\n(§2) Bacterial strains and culture\n(§3) Bacterial type stains ATCC 25923 S. aureus, ATCC 12228 S. epidermidis, ATCC […]\n(§4) aeruginosa and ATCC 13883 K. pneumoniae were obtained from Shanghai Bioresource Collection Center. The bacterial culture medium was purchased from Oxoid and autoclaved according to the instructions from manufacturer. The isolated strains were cultured in Mueller Hinton II broth and continuously shaken at 140 rpm for 18 hours to the middle of the exponential growth phase at 37 °C with an OD value of 0.4-0.5.\n(§5) Bacterial suspensions with an OD value of 0.1, approximately […], were then diluted for further assays.\n(§6) The minimal inhibition concentration (MIC) of the linear and stapled peptides was determined using the microbroth dilution method from the Clinical and Laboratory Standards Institute (CLSI)[2, 3]. Bacterial suspensions of 10 6 CFU/mL were prepared in MH-II broth and peptide solutions at varying concentrations were prepared in phosphate buffer saline (PBS). Then 50 μL peptide solution and 50 μL bacterial suspension were mixed in a 96 -well plate. Plates were incubated for 24 hours at 37 °C.\n(§7) 10 μL AlamarBlue cell viability reagent (ThermoFisher Scientific, UK) was added to each well, then the plate was re -incubated for a further 2 hours at 37 °C. The MIC was recorded as the minimum concentration of peptides required to completely in hibit bacteria growth. For serum stability assessment, the peptide solutions were pre - incubated with 50% human serum for 4 h before the MIC determination. Experiments were performed in 3 independent measurements. […]"}, "[2]": {"test_system": "S. epidermidis", "conditions": "24 h", "protocol": "as §1, §2, §3, §4, §5, §6, §7"}, "[3]": {"test_system": "K. pneumoniae", "conditions": "24 h", "protocol": "as §1, §2, §3, §4, §5, §6, §7"}, "[4]": {"test_system": "S. aureus", "conditions": "24 h", "protocol": "as §1, §2, §3, §4, §5, §6, §7"}, "[5]": {"test_system": "E. coli", "conditions": "24 h", "protocol": "as §1, §2, §3, §4, §5, §6, §7"}, "[6]": {"test_system": "P. aeruginosa", "conditions": "24 h", "protocol": "as §1, §2, §3, §4, §5, §6, §7"}, "[7]": {"test_system": "A. baumannii", "conditions": "24 h", "protocol": "as §1, §2, §3, §4, §5, §6, §7"}, "[8]": {"test": "Serum stability assay", "type": "in vitro ADME, human", "conditions": "human serum, 2 mg/mL peptide in pH 7.4 PBS mixed with serum 1:4, 37 °C, up to 48 h, RP-HPLC UV 220 nm, 3 independent measurements", "source_text": "Maintaining high stability and presenting high compatibility in the complex physiological environment are important criterions for the clinical translation of AMPs. […] The derivatives were mixed with human serum in pH 7.4 PBS, simulating the degradation process of peptides by proteases in vivo. The percentages of intact derivatives were monitored and determined with time according to the PR-HPLC. […]\nSerum stability of the linear and stapled peptides was examined by RP -HPLC as previously described. 2 mg/mL peptide solution was prepared in pH 7.4 PBS and incubated with human serum (Gemini, USA) to the final volume ratio of 1:4 at 37 °C.\nAt various time intervals, 50 μL mixture was added to 50 μL ethanol to terminate the enzymatic hydrolysis. After centrifugation at 10,000 rpm for 10 minutes under 4 °C, […]\nthe supernatant was collected and analyzed by RP-HPLC, with a UV detector monitored at 220 nm. Record the peak area of the intact peptide and calculate the percentage of remaining peptide based on the integrated area as, Peptide remaining (%) = peak area of remaining peptide/peak area of intact peptide×100%. […]"}, "[9]": {"test_system": "NIH-3T3 cell", "conditions": "24 h", "protocol": "For development of the stapled KR-12 derivatives to treat bacterial infections in vivo, their cytotoxicity was examined via the CCK-8 assay, which could provide a quantitative assessment of cell viability based on the dehydrogenase activity. The mouse embryonic fibroblast NIH-3T3 cell was selected and incubated with various concentrations of KR-12 and its stapled derivatives.\nMouse embryonic fibroblast cells NIH-3T3 and mouse monocyte macrophage leukemia cells RAW264.7 were obtained from Shanghai Institute of Biochemistry and Cell Biology, Chinese Academy of Sciences. These two cells were maintained in DMEM and RPMI-1640, respectively. Both media were supplemented with 10% FBS and 1% 100 U/mL penicillin-streptomycin solution. Cells were maintained at 37 °C in a 5% CO2 and humidified incubator. Replace the culture medium every day until the cell grows to confluence. Cells were then treated with 0.25% trypsin–EDTA and split using fresh medium for either passage or analysis.\nCCK-8 cell counting kit was utilized to examine the cytotoxicity of the linear and stapled peptides. NIH-3T3 cell was planked at a density of 1.5×10^4 cell/well in a 96 - well plate and incubated it for 24 hours at 37 °C. Cells were then treated with different concentrations of peptides in fresh DMEM and incubated for 24 hours before the addition of 10 μL CCK -8 and incubation for a further 1 hour. Measure the absorbance at 450nm using a microplate reader (BioTek, USA) and calculate the percentage of cell viability as: cell viability (%) = (Abspeptide-Absblank)/(Abscontrol-Absblank)×100%, where Abscontrol is the absorbance of cells treated with PBS and Abs blank is the absorbance of the cell-free medium. The data was fitted using the nonlinear regression within"}}, "note": "Positions of bridges follow the written chain, without caps; N, C: chain ends. Non-standard residues stand in square brackets, D forms with d. Residues, ends and D or L forms follow the SMILES beside them. S5 = C=CCCC[C@](C)(N)C(=O)O"}
{"smiles": "CC[C@H](C)[C@H](NC(=O)[C@]1(C)CCCC=CCCC[C@](C)(NC(=O)[C@H](CCCCN)NC(C)=O)C(=O)N[C@@H]([C@@H](C)CC)C(=O)N[C@@H](C(C)C)C(=O)N[C@@H](CCC(N)=O)C(=O)N1)C(=O)N[C@@H](CCCCN)C(=O)N[C@@H](CC(=O)O)C(=O)N[C@@H](Cc1ccccc1)C(=O)N[C@@H](CC(C)C)C(=O)N[C@@H](CCCNC(=N)N)C(N)=O", "note": "[KR-12 (R2, R6)] (Ac-K[S5]IVQ[S5]IKDFLR-NH2; staple 2-6)", "values": [{"measurement": "MIC E. faecalis", "setting": "[1]", "value": 128, "unit": "µg/mL"}, {"measurement": "MIC S. epidermidis", "setting": "[2]", "value": 128, "unit": "µg/mL"}, {"measurement": "MIC K. pneumoniae", "setting": "[3]", "value": "> 256", "unit": "µg/mL"}, {"measurement": "MIC S. aureus", "setting": "[4]", "value": 128, "unit": "µg/mL"}, {"measurement": "MIC E. coli", "setting": "[5]", "value": ">256", "unit": "µg/mL"}, {"measurement": "MIC P. aeruginosa", "setting": "[6]", "value": "> 256", "unit": "µg/mL"}, {"measurement": "MIC A. baumannii", "setting": "[7]", "value": "> 256", "unit": "µg/mL"}, {"measurement": "TD50 (time at which 50% of the peptide is degraded in the presence of serum)", "setting": "[8]", "value": 2.38, "unit": "h"}, {"measurement": "IC50 against NIH-3T3 cell", "setting": "[9]", "value": 78.3, "unit": "µg/mL"}]}
{"smiles": "CC(=O)N[C@@H](CCCCN)C(=O)N[C@@H](CCCNC(=N)N)C(=O)N[C@@]1(C)CCCC=CCCC[C@@](C)(C(=O)N[C@@H](CCCCN)C(=O)N[C@@H](CC(=O)O)C(=O)N[C@@H](Cc2ccccc2)C(=O)N[C@@H](CC(C)C)C(=O)N[C@@H](CCCNC(=N)N)C(N)=O)NC(=O)[C@H](CCCNC(=N)N)NC(=O)[C@H](CCC(N)=O)NC(=O)[C@H](C(C)C)NC1=O", "note": "[KR-12 (I3, I7)] (Ac-KR[S5]VQR[S5]KDFLR-NH2; staple 3-7)", "values": [{"measurement": "MIC E. faecalis", "setting": "[1]", "value": 16, "unit": "µg/mL"}, {"measurement": "MIC S. epidermidis", "setting": "[2]", "value": 64, "unit": "µg/mL"}, {"measurement": "MIC K. pneumoniae", "setting": "[3]", "value": 128, "unit": "µg/mL"}, {"measurement": "MIC S. aureus", "setting": "[4]", "value": 8, "unit": "µg/mL"}, {"measurement": "MIC E. coli", "setting": "[5]", "value": 16, "unit": "µg/mL"}, {"measurement": "MIC P. aeruginosa", "setting": "[6]", "value": 256, "unit": "µg/mL"}, {"measurement": "MIC A. baumannii", "setting": "[7]", "value": 32, "unit": "µg/mL"}, {"measurement": "TD50 (time at which 50% of the peptide is degraded in the presence of serum)", "setting": "[8]", "value": 4.21, "unit": "h"}, {"measurement": "IC50 against NIH-3T3 cell", "setting": "[9]", "value": 145.7, "unit": "µg/mL"}]}
{"smiles": "CC[C@H](C)[C@H](NC(=O)[C@H](CCCNC(=N)N)NC(=O)[C@H](CCCCN)NC(C)=O)C(=O)N[C@H](C(=O)N[C@@H](CCC(N)=O)C(=O)N[C@@H](CCCNC(=N)N)C(=O)N[C@@]1(C)CCCC=CCCC[C@@](C)(C(=O)N[C@@H](CCCNC(=N)N)C(N)=O)NC(=O)[C@H](Cc2ccccc2)NC(=O)[C@H](CC(=O)O)NC(=O)[C@H](CCCCN)NC1=O)C(C)C", "note": "[KR-12 (I7, L11)] (Ac-KRIVQR[S5]KDF[S5]R-NH2; staple 7-11)", "values": [{"measurement": "MIC E. faecalis", "setting": "[1]", "value": 32, "unit": "µg/mL"}, {"measurement": "MIC S. epidermidis", "setting": "[2]", "value": 128, "unit": "µg/mL"}, {"measurement": "MIC K. pneumoniae", "setting": "[3]", "value": 256, "unit": "µg/mL"}, {"measurement": "MIC S. aureus", "setting": "[4]", "value": 32, "unit": "µg/mL"}, {"measurement": "MIC E. coli", "setting": "[5]", "value": 32, "unit": "µg/mL"}, {"measurement": "MIC P. aeruginosa", "setting": "[6]", "value": 256, "unit": "µg/mL"}, {"measurement": "MIC A. baumannii", "setting": "[7]", "value": 64, "unit": "µg/mL"}, {"measurement": "TD50 (time at which 50% of the peptide is degraded in the presence of serum)", "setting": "[8]", "value": 11.44, "unit": "h"}, {"measurement": "IC50 against NIH-3T3 cell", "setting": "[9]", "value": 212.8, "unit": "µg/mL"}]}
{"smiles": "CC[C@H](C)[C@@H]1NC(=O)[C@H](CCCNC(=N)N)NC(=O)[C@@](C)(NC(=O)[C@@H](NC(=O)[C@@H](NC(=O)[C@H](CCCNC(=N)N)NC(=O)[C@H](CCCCN)NC(C)=O)[C@@H](C)CC)C(C)C)CCCC=CCCC[C@@](C)(C(=O)N[C@@H](Cc2ccccc2)C(=O)N[C@@H](CC(C)C)C(=O)N[C@@H](CCCNC(=N)N)C(N)=O)NC(=O)[C@H](CCCCN)NC1=O", "note": "[KR-12 (Q5, D9)] (Ac-KRIV[S5]RIK[S5]FLR-NH2; staple 5-9)", "values": [{"measurement": "MIC E. faecalis", "setting": "[1]", "value": 8, "unit": "µg/mL"}, {"measurement": "MIC S. epidermidis", "setting": "[2]", "value": 16, "unit": "µg/mL"}, {"measurement": "MIC K. pneumoniae", "setting": "[3]", "value": 128, "unit": "µg/mL"}, {"measurement": "MIC S. aureus", "setting": "[4]", "value": 8, "unit": "µg/mL"}, {"measurement": "MIC E. coli", "setting": "[5]", "value": 8, "unit": "µg/mL"}, {"measurement": "MIC P. aeruginosa", "setting": "[6]", "value": 64, "unit": "µg/mL"}, {"measurement": "MIC A. baumannii", "setting": "[7]", "value": 16, "unit": "µg/mL"}, {"measurement": "TD50 (time at which 50% of the peptide is degraded in the presence of serum)", "setting": "[8]", "value": 8.91, "unit": "h"}, {"measurement": "IC50 against NIH-3T3 cell", "setting": "[9]", "value": 168.5, "unit": "µg/mL"}]}
